# Laboratory results from US5180742A, “Quinone derivatives, their production and use” (Takeda Chemical Industries, Ltd., priority 1984, dated 1993).
# Molecular target: T1, 5-Lipoxygenase (Rattus norvegicus, UniProt P12527)
# T1 construct: endogenous in cells; host or cells: RBL-1 (rat basophilic leukemia cells)
# T1 sequence (P12527 1-673): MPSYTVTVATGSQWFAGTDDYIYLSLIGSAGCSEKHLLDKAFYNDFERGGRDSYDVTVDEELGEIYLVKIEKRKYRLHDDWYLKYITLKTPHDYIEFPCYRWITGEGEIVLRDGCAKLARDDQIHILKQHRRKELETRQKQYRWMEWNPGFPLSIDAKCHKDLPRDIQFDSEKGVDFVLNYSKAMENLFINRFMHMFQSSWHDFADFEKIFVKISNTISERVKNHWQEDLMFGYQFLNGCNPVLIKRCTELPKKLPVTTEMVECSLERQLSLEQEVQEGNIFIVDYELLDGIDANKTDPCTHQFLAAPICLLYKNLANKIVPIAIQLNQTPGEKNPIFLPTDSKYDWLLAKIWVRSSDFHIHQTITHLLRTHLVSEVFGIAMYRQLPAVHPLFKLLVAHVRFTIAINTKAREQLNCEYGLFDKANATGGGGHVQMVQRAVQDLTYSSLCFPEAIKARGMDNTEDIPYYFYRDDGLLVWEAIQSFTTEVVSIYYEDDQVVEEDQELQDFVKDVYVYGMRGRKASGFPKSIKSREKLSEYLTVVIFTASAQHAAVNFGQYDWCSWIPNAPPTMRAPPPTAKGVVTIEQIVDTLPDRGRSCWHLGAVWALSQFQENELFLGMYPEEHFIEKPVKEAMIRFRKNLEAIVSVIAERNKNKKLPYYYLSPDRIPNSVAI
# Assay: 5-Lipoxygenase inhibitory activity: 5-HETE production in RBL-1 cells (HPLC)
# Type: cell-based, rat (RBL-1, rat basophilic leukemia cells)
# Conditions: arachidonic acid + A 23187, 37° C., 20 minutes, read-out: 5-HETE production inhibiting effect (IC50)
# Experimental: 5-Lipoxygenase Inhibitory Activity
# 10^7 RBL-1 cells (rat basophilic leukemia cells) were suspended in 0.5 ml of MCM (mast cell medium), and test solutions (made up of 0.5 ml of MCM, 50 μg of arachidonic acid, 10 μg of A 23187 (calcium ionophore, Eli Lilly) and 1 μM, 0.1 μM, 0.01 μM and0.001 μM as the final concentration of the quinone compound, respectively) prepared previously were added respectively to the suspension, followed by reaction at 37° C. for 20 minutes. After the conclusion of the reaction, 4 ml of ethanol and 1,4-dimethoxy-2-methyl-3-(3-methoxypropyl)naphthalene as the internal reference drug were added to the reaction solution, and the mixture was shaken thoroughly and allowed to stand at room temperature for 10 minutes. Then, it was centrifuged (2000 r.p.m.) for 10 minutes, and the supernatant fluid was separated and concentrated to dryness under reduced pressure. 0.5 Milliliter of 60% aqueous methanol was added to the concentrate, and 100 μl of the resulting solution was taken and subjected to high-performance liquid chromatography to determine amount of 5-HETE (5-hydroxyeicosatetraenoic acid). Determination of 5-HETE was made through measurement of an absorption at 237 nm with a UV absorption monitor.
# The 5-HETE production inhibitory effect (IE) was expressed by [formula] wherein a is a peak height or peak area corrected by the peak for the internal reference when the quinone compound is not contained; b is a peak height or peak area corrected by the peak for the internal reference when the quinone compound is contained.
row,SMILES,IC50
1,"CC1=C(C)C(=O)C(C(CCCCCCC(=O)O)c2ccccc2)=C(C)C1=O (stereo not drawn) [Compound No. 9, 8-phenyl-8-(3,5,6-trimethyl-1,4-benzoquinon-2-yl)octanoic acid]",0.032 µM
2,COC1=C(OC)C(=O)C(C(CCCCC(=O)O)c2cccs2)=C(C)C1=O (stereo not drawn) [compound 17],0.2 µM

# The next lines start with the values.
row,IC50,SMILES
1,0.08 µM,"CCOC(=O)CCCCC(C1=C(C)C(=O)C(C)=C(C)C1=O)c1cccs1 (stereo not drawn) [Compound No. 1, ethyl 6-(3,5,6-trimethyl-1,4-benzoquinon-2-yl)-6-(2-thienyl)hexanoate]"
2,0.06 µM,CCOC(=O)CCCCC(C1=C(C)C(=O)c2ccccc2C1=O)c1cccs1 (stereo not drawn) [Compound No. 3]
3,0.03 µM,CCOC(=O)CCCCC(C1=C(C)C(=O)c2ccccc2C1=O)c1ccccc1 (stereo not drawn) [Compound No. 5]
4,0.028 µM,CCOC(=O)CCCCC(C1=C(C)C(=O)C(OC)=C(OC)C1=O)c1cccs1 (stereo not drawn) [Compound No. 6]
5,0.14 µM,CCOC(=O)CCCCC(C1=C(C)C(=O)C(OC)=C(OC)C1=O)c1ccccc1 (stereo not drawn) [Compound No. 7]
6,0.034 µM,CC1=C(C)C(=O)C(C(CCCCC(=O)O)c2ccccc2)=C(C)C1=O (stereo not drawn) [Compound No. 10]
7,0.034 µM,CC1=C(C)C(=O)C(C(CCCCCCCCC(=O)O)c2ccccc2)=C(C)C1=O (stereo not drawn) [Compound No. 11]
8,0.08 µM,CC1=C(C(CCCCC(=O)O)c2cccs2)C(=O)c2ccccc2C1=O (stereo not drawn) [Compound No. 13]
9,0.2 µM,CC1=C(C(CCCCCCC(=O)O)c2ccccc2)C(=O)c2ccccc2C1=O (stereo not drawn) [Compound No. 14]
10,0.44 µM,"CC1=C(C)C(=O)C(C(CCC(=O)O)c2ccccc2)=C(C)C1=O (stereo not drawn) [Compound No. 35, 4-(3,5,6-trimethyl-1,4-benzoquinon-2-yl)-4-phenylbutyric acid]"
11,1.3 µM,COC1=C(OC)C(=O)C(C(CCC(=O)O)c2ccccc2)=C(C)C1=O (stereo not drawn) [Compound No. 39]
12,0.028 µM,"CC1=C(C)C(=O)C(C(CCCCCCO)c2ccccc2)=C(C)C1=O (stereo not drawn) [Compound No. 45, 7-(3,5,6-trimethyl-1,4-benzoquinon-2-yl)-7-phenylheptanol]"
13,0.062 µM,"COC1=C(OC)C(=O)C(C(CCCCCCO)c2ccccc2)=C(C)C1=O (stereo not drawn) [Compound No. 56, 7-(5,6-dimethoxy-3-methyl-1,4-benzoquinon-2-yl)-7-phenylheptanol]"
14,0.05 µM,CC1=C(C(CCCCCCCCC(=O)O)c2ccccc2)C(=O)c2ccccc2C1=O (stereo not drawn) [compound 15]
15,0.032 µM,COC1=C(OC)C(=O)C(C(CCCCC(=O)O)c2ccccc2)=C(C)C1=O (stereo not drawn) [compound 16]
16,0.2 µM,COC1=C(OC)C(=O)C(C(CCCCCCC(=O)O)c2ccccc2)=C(C)C1=O (stereo not drawn) [compound 18]
17,0.73 µM,CC1=C(C)C(=O)C(C(CCCO)c2ccccc2)=C(C)C1=O (stereo not drawn) [compound 46]

# Tested on: Immunoglobulin-G1 mediated bronchoconstriction reaction
# Assay: Action on immunoglobulin-G1 mediated bronchoconstriction reaction in guinea pigs
# Type: in vivo, Hartley guinea pigs
# Conditions: Cavia porcellus; 20 mg/kg oral, 1 hour before antigen
# Experimental: Action on the Immunoglobulin-G1 Mediated Bronchoconstriction Reaction in Guinea Pigs
# In accordance with the method of Orange and Moore (Orange, R. P. and Moore E. G. , J. Immunol., 116, 392-397, 1976), female and male Hartley guinea pigs weighing about 350 g were sensitized by intraperitoneal application of an emulsion (1 ml) composed of egg albumin (1 mg) and Freund's complete adjuvant (produced by Wako Pure-Chemical Industries, Ltd. of Japan). 3 Weeks after the sensitization, a serum antibody level in the sensitized guinea pigs was measured by means of the 3-hours passive cutaneous anaphylaxis (PCA) reaction in guinea pigs. […] The broncoconstriction reaction resulting from the antigen-antibody reaction was measured in accordance with the Konzett-Rossler method (Konzett, H. and Rossler, R., Naunyn-Schmiedeberg'ss Arch. exp. Path. pharmak., 195, 71-74, 1940). The guinea pigs were fixed on the dorsal position under anesthesia with a urethane (1.5 g/kg given intraperitonealy). An incision was made through the trachea, which was connected to an artificial respirator (manufactured by Harvard Co.) through an endotracheal tube, with a side tube of the endotracheal tube being attached to a brochoconstricting transducer (type 7020, manufactured by Ugobasile Co.). While an air volume per ventilation was adjusted to 5 to 7 ml and an air ventilation rate was controlled at 70 times/min., with a load pressure to the lung set at 10 cm H2 O, the overflown air volume was recorded on Rectigraphy-8S (manufactured by Sanei Sokki Inc. of Japan) through a transducer. After 1 mg/kg of gallamine triethiodide was given intravenously to the animals, 1 mg/kg of antigen, egg albumin dissolved in physiological saline, was applied intravenously to induce a brochoconstriction reaction. The bronchconstriction reaction was recorded for the period of time of 15 minutes. A drug was suspended in 5% gum arabic solution, and given orally 1 hour before the application of the antigen. Percent inhibition of the immunoglobuin G1 mediated bronchoconstriction reaction in guinea pigs are shown below in Table 3.
row,SMILES,inhibition in vivo at 20 mg/kg
1,"CC1=C(C)C(=O)C(C(CCCCCCC(=O)O)c2ccccc2)=C(C)C1=O (stereo not drawn) [Compound No. 9, 8-phenyl-8-(3,5,6-trimethyl-1,4-benzoquinon-2-yl)octanoic acid]",71%
2,CC1=C(C)C(=O)C(C(CCCCC(=O)O)c2ccccc2)=C(C)C1=O (stereo not drawn) [Compound No. 10],80%
3,CC1=C(C(CCCCC(=O)O)c2ccccc2)C(=O)c2ccccc2C1=O (stereo not drawn) [Compound No. 12],78%
4,CC1=C(C(CCCCCCC(=O)O)c2ccccc2)C(=O)c2ccccc2C1=O (stereo not drawn) [Compound No. 14],78%
5,"CC1=C(C)C(=O)C(C(CCCCCCO)c2ccccc2)=C(C)C1=O (stereo not drawn) [Compound No. 45, 7-(3,5,6-trimethyl-1,4-benzoquinon-2-yl)-7-phenylheptanol]",91%
6,CC1=C(C)C(=O)C(C(CCCCCCC(=O)O)c2ccc3c(c2)CCC3)=C(C)C1=O (stereo not drawn) [compound 25],83%
7,COc1ccc(C(CCCCCC(=O)O)C2=C(C)C(=O)c3ccccc3C2=O)cc1 (stereo not drawn) [compound 26],85%
8,CC1=C(C(CCCCCC(=O)O)c2ccc3ccccc3c2)C(=O)c2ccccc2C1=O (stereo not drawn) [compound 27],81%
9,CC1=C(C(CCCCCC(=O)O)c2ccc3c(c2)CCC3)C(=O)c2ccccc2C1=O (stereo not drawn) [compound 28],85%
10,CC1=C(C(CCCCCCC(=O)O)c2ccc3c(c2)CCC3)C(=O)c2ccccc2C1=O (stereo not drawn) [compound 29],81%
11,CC1=C(C(CCCC(=O)O)c2ccccc2)C(=O)c2ccccc2C1=O (stereo not drawn) [compound 38],73%
12,CCCCCCC(C1=C(C)C(=O)C(C)=C(C)C1=O)c1ccccc1 (stereo not drawn) [compound 49],84%
13,CC1=C(C)C(=O)C(C(CCCCCCOC(N)=O)c2ccccc2)=C(C)C1=O (stereo not drawn) [compound 59],83%
14,CC1=C(C)C(=O)C(C(CCCCCCCO)c2ccc3c(c2)CCC3)=C(C)C1=O (stereo not drawn) [compound 76],89%
15,CC1=C(C(CCCCCC(=O)O)c2ccccc2)C(=O)c2ccccc2C1=O (stereo not drawn) [compound 86],80%
16,CC1=C(C(CCCCCC(=O)O)c2ccc(F)cc2)C(=O)c2ccccc2C1=O (stereo not drawn) [compound 89],65%

# Tested on: PAF-induced bronchoconstriction
# Assay: Effect on PAF-induced bronchoconstriction in guinea pigs
# Type: in vivo
# Conditions: 0.31 mg/kg oral, one hour before PAF
# Experimental: Platelet Activating Factor (PAF)-Induced Bronchoconstriction in Guinea Pigs
# Experimental procedure in this experiment was the same as that in LTD4 -induced bronchoconstriction shown in Experimental example 7. PAF is an intraveneous dose of 1 μg/kg was used. Each specimen suspended in a 5% gum arabic solution was given orally one hour before the PAF administration.
row,SMILES,% Inhibition of PAF-induced bronchoconstriction
1,"CC1=C(C)C(=O)C(C(CCCCCC(N)=O)c2ccccc2)=C(C)C1=O (stereo not drawn) [compound 146, 7-(3,5,6-trimethyl-1,4-benzoquinon-2-yl)-7-phenylheptanamide]",49.7%

# Same assay, conditions: 1.25 mg/kg oral, one hour before PAF
row,SMILES,% Inhibition of PAF-induced bronchoconstriction
1,"CC1=C(C)C(=O)C(C(CCCCCC(N)=O)c2ccccc2)=C(C)C1=O (stereo not drawn) [compound 146, 7-(3,5,6-trimethyl-1,4-benzoquinon-2-yl)-7-phenylheptanamide]",80.3%

# Same assay, conditions: 5 mg/kg oral, one hour before PAF
row,SMILES,% Inhibition of PAF-induced bronchoconstriction
1,"CC1=C(C)C(=O)C(C(CCCCCC(N)=O)c2ccccc2)=C(C)C1=O (stereo not drawn) [compound 146, 7-(3,5,6-trimethyl-1,4-benzoquinon-2-yl)-7-phenylheptanamide]",100.0%
2,"CC1=C(C)C(=O)C(C(CCCCCC(=O)N2CCN(CCc3ccccc3)CC2)c2ccccc2)=C(C)C1=O (stereo not drawn) [compound 163, 4-[7-(3,5,6-trimethyl-1,4-benzoquinon-2-yl)-7-phenylheptanoyl]-(2-phenylethyl)piperazine]",59.9%
